Experimental data taken from patent publication US20260344673A1, “A SOLID FORM FOR PREPARATION OF AN AQUEOUS DISPERSION, AQUEOUS DISPERSION, STABLE CONCENTRATE, COMBINED AQUEOUS DISPERSION, AND USES THEREOF” (priority 2022, published 2026).

Columns and labels:
[1] = tested on: Colletotrichum spp.; test: Field trial soya, efficacy against Colletotrichum spp.; type: in vivo; details: field conditions, tank-mix, control (no treatment) 4.21
[2] = tested on: Phytium ultimum; test: Kirby-Bauer disk diffusion test, Phytium ultimum
Experimental: (§1) The performance of the embodiments of the present inventions and their mixtures enriched with millbase (MFA) was analysed against the appropriate reference substance, i.e., a commercial product containing the analogue active substance with the same concentration. The prepared solutions were applied on the paper antibiograms. Then the soaked antibiograms were placed on the Petri Dishes (dish diameter 90 mm) with the growth medium for fungal pathogens V8. Composition of V8: agar, calcium carbonate and multi-vegetable juice. 3 fragments of mycelium of the tested pathogen (5×5 mm) were transplanted onto the prepared medium. As a result, the zones where the fungal growth was inhibited have been measured and compared respectively with the control sample and the analogue active substance sample.
(§2) Assessment was carried out by determining the infested area of the Petri dish in %. These percentages have been converted into efficacy (W) according to Abbot's formula as follows: W=(1−α/β)×100 • where: • α—corresponds to the mycelium/bacterial growth of each tested sample [%], • β—corresponds to the mycelium/bacterial growth in control sample [%].
(§3) In order to estimate if the combined action effect with the commercial fungicide, the W parameter of the mixture was compared with W parameter for particular commercial fungicide solo. Where W=0 the efficacy of the control sample (whole Petri dish covered with mycelium), and W=100 is when no mycelium growth observed.

[3] = tested on: Venturia inaegualis; test: Kirby-Bauer disk diffusion test, Venturia inaequalis; details: Venturia inaegualis
Experimental: (§4) The microbiological tests were carried out by applying Kirby-Bauer Disk Diffusion Susceptibility Test Protocol for antimicrobial activity. It is based on the formation of a concentration gradient in the growth medium during the diffusion of the active substance from the antibiogram disc (Kirby-Bauer method).
as §1, §2, §3

[4] = tested on: Erwinia sp.; test: Kirby-Bauer disk diffusion test, bacterial pathogens (inhibition zones, halo effect); details: Nutrient Agar, tank-mixes
[5] = tested on: Fusarium oxysporum; test: Kirby-Bauer disk diffusion test, Fusarium oxysporum; details: Fusarium oxysporum
Experimental: as §4, §1, §2, §3

[6] = tested on: Peronospora manshurica; test: Field trial soya, efficacy against Peronospora manshurica; type: in vivo; details: field conditions, tank-mix, control (no treatment) 5.66
Experimental: (§5) The rates of application (use) of the composition of the present invention (MFA) vary according to type of use, type of crop, the specific active ingredient in the combination, but is such that the active ingredient in the combination is an effective amount to provide the desired action (such as disease control). The application rate of the composition for a given set of conditions can readily be determined by trials.
(§6) Field trials were conducted in Poland according to approved EPPO guidelines: PP 1/135(4), PP 1/152(4), PP 1/181(4) (general), PP 1/1(4) (sugar beet), PP 1/28 (3), PP 1/26(4) (winter wheat), PP 1/78(4) (oilseed), PP1/263 (1), PP1/16 (3) (strawberry), PP 1/2 (5), PP 1/263 (1) (potato). The spray volumes were in line with farmers' practice, varying between 200-300 l/ha. The applications were processed as per the EPPO guideline specific for each crop.

[7] = tested on: Sclerotinia sclerotiorum; test: Kirby-Bauer disk diffusion test, Sclerotinia sclerotiorum
Experimental: as §1, §2, §3

[8] = tested on: Verticillium longisporum; test: Kirby-Bauer disk diffusion test, Verticillium longisporum
Experimental: as §1, §2, §3

[9] = tested on: oilseed rape; test: Field trial oilseed rape, plant biomass and yield quality/quantity parameters; type: in vivo; details: field conditions
Experimental: as §6

[10] = tested on: Colletotrichum gloeosporioides; test: Kirby-Bauer disk diffusion test, Colletotrichum gloeosporioides; details: Colletotrichum gloeosporioides
Experimental: as §4, §1, §2, §3

[11] = tested on: Sclerotinia sclerotiorum; test: Field trial oilseed rape, efficacy against Sclerotinia sclerotiorum; type: in vivo; details: field conditions, tank-mix, control (no treatment) 6.28
Experimental: as §5, §6

[12] = tested on: winter wheat; test: Field trial winter wheat, plant biomass and yield parameters; type: in vivo; details: field conditions
Experimental: as §6

[13] = tested on: Alternaria infectoria/alternata; test: Kirby-Bauer disk diffusion test, Alternaria infectoria/alternata
Experimental: as §1, §2, §3

[14] = tested on: Monilinia fructigena; test: Kirby-Bauer disk diffusion test, Monilinia fructigena
Experimental: as §1, §2, §3

[15] = tested on: Phoma lingam; test: Field trial oilseed rape, efficacy against Phoma lingam; type: in vivo; details: field conditions, tank-mix, control (no treatment) 4.18
Experimental: as §5, §6

[16] = tested on: Fusarium equiseti; test: Kirby-Bauer disk diffusion test, Fusarium equiseti
Experimental: as §1, §2, §3

[17] = tested on: Zymoseptoria tritici; test: Field trial winter wheat, efficacy against Zymoseptoria tritici; type: in vivo; details: field conditions, tank-mix, control (no treatment) 4.68
Experimental: as §5, §6

[18] = tested on: Septoria tritici; test: Kirby-Bauer disk diffusion test, Septoria tritici
Experimental: as §1, §2, §3

[19] = tested on: soya; test: Field trial soya, plant biomass and yield parameters; type: in vivo; details: field conditions
Experimental: as §6

[20] = tested on: Phytophthora megasperma; test: Kirby-Bauer disk diffusion test, Phytophthora megasperma; details: Phytophthora megasperma
Experimental: as §4, §1, §2, §3

[21] = tested on: Phytophthora cactorum; test: Kirby-Bauer disk diffusion test, Phytophthora cactorum; set-up: % mycelium growth relative to the control: concentration or dose not given beside the values
Experimental: as §1, §2, §3

[22] = tested on: Septoria nodorum (1291); test: Kirby-Bauer disk diffusion test, Septoria nodorum (1291)
Experimental: as §1, §2, §3

[23] = tested on: Botrytis cinerea; test: Kirby-Bauer disk diffusion test, Botrytis cinerea
Experimental: as §1, §2, §3

[24] = tested on: selected pathogens (fungi); details: vs commercial fungicide
[25] = tested on: Cochliobolus sativus; details: Montana 1981 and 1982; cited from earlier work
[26] = tested on: spring barley; details: Montana 1981 and 1982; cited from earlier work
[27] = tested on: spring barley; details: compared with uninoculated plots; Montana 1981 and 1982; cited from earlier work
[28] = tested on: seeds; test: Seed treatment test: germination rate, infected seeds, shoot and root biomass (all seed species); type: in vivo; details: applied alone and in mixtures with seed treatment fungicides
Experimental: The method of treating seeds according to the embodiment of the present inventions can be characterised in that in the treatment seed with 30 g checked product with and without combination with fungicidal seed treatment products per 100 kg of seed are employed. The results were assessed due to EPPO: PP1/152(4), PP 1/19 (5), PP 1/135(4) and PP1/181(4) Standards.
Seed treatment test was conducted according to International Rules for Seed Testing 2018 (ISTA) under laboratory conditions using sterile paper as a growing media. The tests were continued for 14 days. As a result, the germination rate and the number of infected seeds were calculated. The biomass (shoots and roots) was collected and measured accordingly.

COC=C(C(=O)OC)c1ccccc1Oc1cc(Oc2ccccc2C#N)ncn1 [Azoxystrobin (250)]
Efficacy Colletotrichum spp. [1]: 1.76 scale 0-10
% mycelium growth relative to the control ([2]; V8 medium): 100%
mycelium growth ([2]; V8 medium, control 8.6 cm): 8.6 cm
EFFICACY W (Abbot) ([2]; control W=0, no growth W=100): 0
% mycelium growth relative to the control ([3]; V8 medium): 0%
mycelium growth ([3]; V8 medium, control 2.9 cm): 0 cm
EFFICACY W (Abbot) ([3]; control W=0, no growth W=100): 100
Efficacy % ([4]; control 0.00): 22.86%
Erwinia sp. bacterial growth ([4]; control 3.5 mm): 2.7 mm
% mycelium growth relative to the control ([5]; V8 medium): 100%
mycelium growth ([5]; V8 medium, control 8.6 cm): 8.6 cm
EFFICACY W (Abbot) ([5]; control W=0, no growth W=100): 0
Efficacy Peronospora manshurica [6]: 3.32 scale 0-10
% mycelium growth relative to the control ([7]; V8 medium): 100%
mycelium growth ([7]; V8 medium, control 8.6 cm): 8.6 cm
EFFICACY W (Abbot) ([7]; control W=0, no growth W=100): 0
% mycelium growth relative to the control ([8]; V8 medium): 56%
mycelium growth ([8]; V8 medium, control 3.9 cm): 2.2 cm
EFFICACY W (Abbot) ([8]; control W=0, no growth W=100): 44
The Thousand Grain Weight (TGW) ([9]; Tables 31-33, control 5.64): 5.34 g
Bulk density ([9]; control 0.65): 0.65 kg/L
Yield ([9]; control 25.49): 25.54 dt/ha
Biomass ([9]; control 90.00): 112.50 dt/ha
% mycelium growth relative to the control ([10]; V8 medium): 50%
mycelium growth ([10]; V8 medium, control 5.4 cm): 2.7 cm
EFFICACY W (Abbot) ([10]; control W=0, no growth W=100): 50
Efficacy Sclerotinia sclerotiorum [11]: 4.32 scale 0-10
Bulk density ([12]; control 0.67): 0.63 kg/L
The Thousand Grain Weight (TGW) ([12]; control 41.90): 43.60 g
Yield ([12]; control 76.50): 66.33 dt/ha
Biomass ([12]; control 157.50): 147.50 dt/ha
% mycelium growth relative to the control ([13]; V8 medium): 40%
mycelium growth ([13]; V8 medium, control 8.6 cm): 3.4 cm
EFFICACY W (Abbot) ([13]; control W=0, no growth W=100): 60
% mycelium growth relative to the control ([14]; V8 medium): 0%
mycelium growth ([14]; V8 medium, control 5.4 cm): 0 cm
EFFICACY W (Abbot) ([14]; control W=0, no growth W=100): 100
Efficacy Phoma lingam [15]: 3.42 scale 0-10
% mycelium growth relative to the control ([16]; V8 medium): 77%
mycelium growth ([16]; V8 medium, control 8.6 cm): 6.6 cm
EFFICACY W (Abbot) ([16]; control W=0, no growth W=100): 23
Efficacy Zymoseptoria tritici [17]: 4.32 scale 0-10
% mycelium growth relative to the control ([18]; V8 medium): 0%
mycelium growth ([18]; V8 medium, control 1.9 cm): 0 cm
EFFICACY W (Abbot) ([18]; control W=0, no growth W=100): 100
Bulk density ([19]; control 0.728): 0.627 kg/L
Yield ([19]; control 37.41): 38.26 dt/ha
Biomass ([19]; control 190.0): 156.7 dt/ha
The Thousand Grain Weight (TGW) ([19]; control 205.3): 204.0 g
% mycelium growth relative to the control ([20]; V8 medium): 70%
mycelium growth ([20]; V8 medium, control 5.4 cm (8.6 cm in Table 25)): 3.8 cm
EFFICACY W (Abbot) ([20]; control W=0, no growth W=100): 30
% mycelium growth relative to the control ([21]; V8 medium): 33%
mycelium growth ([21]; V8 medium, control 5.4 cm): 1.8 cm
EFFICACY W (Abbot) ([21]; control W=0, no growth W=100): 67
% mycelium growth relative to the control ([22]; V8 medium): 30%
mycelium growth ([22]; V8 medium, control 5.4 cm): 1.6 cm
EFFICACY W (Abbot) ([22]; control W=0, no growth W=100): 70
% mycelium growth relative to the control ([23]; V8 medium): 100%
mycelium growth ([23]; V8 medium, control 8.6 cm): 8.6 cm
EFFICACY W (Abbot) ([23]; control W=0, no growth W=100): 0

N#Cc1c[nH]cc1-c1cccc2c1OC(F)(F)O2 [Fludioxonil, fludioxonil]
effectiveness in reducing the development of pathogens (in words) [24]: completely inhibited fungal growth

OC(c1ccc(F)cc1)(c1cncnc1)c1ccccc1Cl (centres unmarked) [Nuarimol]
control of common root rot / disease ratings [25]: statistically significant in disease reduction
grain yield [26]: did not increase grain yield
plant emergence [27]: increased emergence

C=CCOC(Cn1ccnc1)c1ccc(Cl)cc1Cl (centres unmarked) [imazalil]
plant emergence [27]: increased emergence

O=C(O)CN(CCN(CC(=O)O)CC(=O)O)CC(=O)O.[Zn+2] [zinc chelated by EDTA, zinc chelated by EDTA (ethylenediamine tetraacetic acid)]
biomass increase (shoots and roots) [28]: neutral to positive influence
germination percentage [28]: neutral to positive influence
